Values joined by “and” are separate entries in the source; they are usually repeats but may differ in a detail not shown here. Equal entries are not always repeated. One block for each compound: values may come before it.
Tested on: 556581-035-R-J1-PDC complex spheroid growth
Experiment: Anticancer human tumor 556581-035-R-J1-PDC patient-derived ovarian carcinoma cell line growth inhibition [AhR]
Conditions: for viability, T/C: stronger effect = lower value
How it was run: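 Agents were dosed in half-log steps down from roughly clinical Cmax, or from 10 microM where Cmax was unknown, alone and with AhR antagonists. Read-out: percent test/control growth of tumor spheroids containing HUVEC and MSC stromal cells.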

[1] = curve of first compound, second compound 0.1 µM
[2] = curve of first compound, second compound 0.316 µM
[3] = curve of first compound, second compound 1 µM
[4] = curve of first compound, second compound 3.16 µM
[5] = curve of first compound, second compound 10 µM
[6] = second compound 0.1 µM, first compound 0.0316 µM
[7] = second compound 0.1 µM, first compound 0.1 µM
[8] = second compound 0.1 µM, first compound 0.316 µM
[9] = second compound 0.1 µM, first compound 1 µM
[10] = second compound 0.1 µM, first compound 3.16 µM
[11] = second compound 0.1 µM, first compound 10 µM
[12] = second compound 0.316 µM, first compound 0.0316 µM
[13] = second compound 0.316 µM, first compound 0.1 µM
[14] = second compound 0.316 µM, first compound 0.316 µM
[15] = second compound 0.316 µM, first compound 1 µM
[16] = second compound 0.316 µM, first compound 3.16 µM
[17] = second compound 0.316 µM, first compound 10 µM
[18] = second compound 1 µM, first compound 0.0316 µM
[19] = second compound 1 µM, first compound 0.1 µM
[20] = second compound 1 µM, first compound 0.316 µM
[21] = second compound 1 µM, first compound 1 µM
[22] = second compound 1 µM, first compound 3.16 µM
[23] = second compound 1 µM, first compound 10 µM
[24] = second compound 3.16 µM, first compound 0.0316 µM
[25] = second compound 3.16 µM, first compound 0.1 µM
[26] = second compound 3.16 µM, first compound 0.316 µM
[27] = second compound 3.16 µM, first compound 1 µM
[28] = second compound 3.16 µM, first compound 3.16 µM
[29] = second compound 3.16 µM, first compound 10 µM
[30] = second compound 10 µM, first compound 0.0316 µM
[31] = second compound 10 µM, first compound 0.1 µM
[32] = second compound 10 µM, first compound 0.316 µM
[33] = second compound 10 µM, first compound 1 µM
[34] = second compound 10 µM, first compound 3.16 µM
[35] = second compound 10 µM, first compound 10 µM
[36] = second compound 0.1 µM, first compound 0.000316 µM
[37] = second compound 0.1 µM, first compound 0.001 µM
[38] = second compound 0.1 µM, first compound 0.00316 µM
[39] = second compound 0.1 µM, first compound 0.01 µM
[40] = second compound 0.316 µM, first compound 0.000316 µM
[41] = second compound 0.316 µM, first compound 0.001 µM
[42] = second compound 0.316 µM, first compound 0.00316 µM
[43] = second compound 0.316 µM, first compound 0.01 µM
[44] = second compound 1 µM, first compound 0.000316 µM
[45] = second compound 1 µM, first compound 0.001 µM
[46] = second compound 1 µM, first compound 0.00316 µM
[47] = second compound 1 µM, first compound 0.01 µM
[48] = second compound 3.16 µM, first compound 0.000316 µM
[49] = second compound 3.16 µM, first compound 0.001 µM
[50] = second compound 3.16 µM, first compound 0.00316 µM
[51] = second compound 3.16 µM, first compound 0.01 µM
[52] = second compound 10 µM, first compound 0.000316 µM
[53] = second compound 10 µM, first compound 0.001 µM
[54] = second compound 10 µM, first compound 0.00316 µM
[55] = second compound 10 µM, first compound 0.01 µM
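Throughout, for viability, T/C: compound exposure lasted 7 days; 100% = DMSO vehicle control growth.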

Structure (SMILES): O=C(c1cc(Cc2n[nH]c(=O)c3ccccc23)ccc1F)N1CCN(C(=O)C2CC2)CC1 + CC(CO)NC(=O)c1cc(-c2ccc(Cl)cc2)nn(-c2cnn(C)c2)c1=O
- IC50 [1]: > 10000 nM
- IC50 [2]: > 10000 nM
- IC50 [3]: > 10000 nM
- IC50 [4]: > 10000 nM
- IC50 [5]: > 10000 nM
- viability, T/C [6]: 93.7%
- viability, T/C [7]: 94.6%
- viability, T/C [8]: 93%
- viability, T/C [9]: 85.1%
- viability, T/C [10]: 83.7%
- viability, T/C [11]: 82.4%
- viability, T/C [12]: 91.9%
- viability, T/C [13]: 98%
- viability, T/C [14]: 93%
- viability, T/C [15]: 89.3%
- viability, T/C [16]: 81.4%
- viability, T/C [17]: 84.3%
- viability, T/C [18]: 93.9%
- viability, T/C [19]: 108%
- viability, T/C [20]: 95.2%
- viability, T/C [21]: 95%
- viability, T/C [22]: 90.1%
- viability, T/C [23]: 73.2%
- viability, T/C [24]: 90.2%
- viability, T/C [25]: 89.7%
- viability, T/C [26]: 94.2%
- viability, T/C [27]: 84%
- viability, T/C [28]: 81.4%
- viability, T/C [29]: 74.4%
- viability, T/C [30]: 106%
- viability, T/C [31]: 105%
- viability, T/C [32]: 85.2%
- viability, T/C [33]: 99.5%
- viability, T/C [34]: 79.1%
- viability, T/C [35]: 77.6%

Structure (SMILES): CC[C@@]1(O)C(=O)OCc2c1cc1n(c2=O)Cc2cc3c(CN(C)C)c(O)ccc3nc2-1 + Cc1ccccc1N=Nc1ccc(NC(=O)c2ccnn2C)c(C)c1
- IC50 [1]: > 100 nM
- IC50 [2]: > 100 nM
- IC50 [3]: > 100 nM
- IC50 [4]: > 100 nM
- IC50 [5]: > 100 nM
- viability, T/C [36]: 94.8%
- viability, T/C [37]: 98.5%
- viability, T/C [38]: 91.5%
- viability, T/C [39]: 82.3%
- viability, T/C [6]: 70.4%
- viability, T/C [7]: 50.6%
- viability, T/C [40]: 108%
- viability, T/C [41]: 104%
- viability, T/C [42]: 92.6%
- viability, T/C [43]: 73.7%
- viability, T/C [12]: 69.1%
- viability, T/C [13]: 54.9%
- viability, T/C [44]: 101%
- viability, T/C [45]: 93.7%
- viability, T/C [46]: 84.7%
- viability, T/C [47]: 79.1%
- viability, T/C [18]: 65%
- viability, T/C [19]: 60.3%
- viability, T/C [48]: 81.3%
- viability, T/C [49]: 83%
- viability, T/C [50]: 83.4%
- viability, T/C [51]: 72%
- viability, T/C [24]: 62.9%
- viability, T/C [25]: 53.1%
- viability, T/C [52]: 89.2%
- viability, T/C [53]: 91.4%
- viability, T/C [54]: 91.1%
- viability, T/C [55]: 69%
- viability, T/C [30]: 64.7%
- viability, T/C [31]: 55.1%

Structure (SMILES): Cn1ncnc1C1c2n[nH]c(=O)c3cc(F)cc(c23)NC1c1ccc(F)cc1 (centres undefined) + CC(CO)NC(=O)c1cc(-c2ccc(Cl)cc2)nn(-c2cnn(C)c2)c1=O
- IC50 [1]: > 100 nM
- IC50 [2]: > 100 nM
- IC50 [3]: > 100 nM
- IC50 [4]: > 100 nM
- IC50 [5]: > 100 nM
- viability, T/C [36]: 109%
- viability, T/C [37]: 104%
- viability, T/C [38]: 101%
- viability, T/C [39]: 103%
- viability, T/C [6]: 97.3%
- viability, T/C [7]: 99.7%
- viability, T/C [40]: 97%
- viability, T/C [41]: 111%
- viability, T/C [42]: 137%
- viability, T/C [43]: 113%
- viability, T/C [12]: 99.3%
- viability, T/C [13]: 93.4%
- viability, T/C [44]: 112%
- viability, T/C [45]: 105%
- viability, T/C [46]: 113%
- viability, T/C [47]: 105%
- viability, T/C [18]: 98.7%
- viability, T/C [19]: 99.6%
- viability, T/C [48]: 114%
- viability, T/C [49]: 110%
- viability, T/C [50]: 105%
- viability, T/C [51]: 93.3%
- viability, T/C [24]: 101%
- viability, T/C [25]: 89.6%
- viability, T/C [52]: 105%
- viability, T/C [53]: 110%
- viability, T/C [54]: 110%
- viability, T/C [55]: 112%
- viability, T/C [30]: 92.6%
- viability, T/C [31]: 97.2%

Structure (SMILES): Nc1ccccc1NC(=O)c1ccc(CNC(=O)OCc2cccnc2)cc1 + Cc1ccccc1N=Nc1ccc(NC(=O)c2ccnn2C)c(C)c1
- IC50 [1]: 2120 nM
- IC50 [2]: 2310 nM
- IC50 [3]: 2790 nM
- IC50 [4]: 2640 nM
- IC50 [5]: 3110 nM
- viability, T/C [6]: 101%
- viability, T/C [7]: 112%
- viability, T/C [8]: 87.2%
- viability, T/C [9]: 69.3%
- viability, T/C [10]: 40.8%
- viability, T/C [11]: 18.9%
- viability, T/C [12]: 110%
- viability, T/C [13]: 102%
- viability, T/C [14]: 93.7%
- viability, T/C [15]: 72.2%
- viability, T/C [16]: 41.1%
- viability, T/C [17]: 19.4%
- viability, T/C [18]: 110%
- viability, T/C [19]: 106%
- viability, T/C [20]: 92.7%
- viability, T/C [21]: 70%
- viability, T/C [22]: 49%
- viability, T/C [23]: 21.5%
- viability, T/C [24]: 113%
- viability, T/C [25]: 104%
- viability, T/C [26]: 88.3%
- viability, T/C [27]: 68.5%
- viability, T/C [28]: 47.3%
- viability, T/C [29]: 20.6%
- viability, T/C [30]: 99.5%
- viability, T/C [31]: 95.9%
- viability, T/C [32]: 92.9%
- viability, T/C [33]: 68.2%
- viability, T/C [34]: 52.2%
- viability, T/C [35]: 32.8%

Continued, in another order:

- IC50 (curve of compound): > 3000 nM
Structure (SMILES): CCN(c1cc(-c2ccc(CN3CCOCC3)cc2)cc(C(=O)NCc2c(C)cc(C)[nH]c2=O)c1C)C1CCOCC1
- viability, T/C (compound 0.00949 µM): 98.6% and 100% and 96.3%
- viability, T/C (compound 0.03 µM): 110% and 102% and 118%
- viability, T/C (compound 0.0949 µM): 97.2% and 104% and 89.5%
- viability, T/C (compound 0.3 µM): 96.6% and 91% and 102%
- viability, T/C (compound 0.949 µM): 96.9% and 87.3% and 106%
- viability, T/C (compound 3 µM): 102% and 91.7% and 108%

- IC50 (curve of compound): > 10000 nM
Structure (SMILES): CC1COCCN1c1cc(C2(S(C)(=N)=O)CC2)nc(-c2ccnc3[nH]ccc23)n1 (centres undefined)
- viability, T/C (compound 0.0316 µM): 104% and 101% and 99.6%
- viability, T/C (compound 0.1 µM): 103% and 105% and 107%
- viability, T/C (compound 0.316 µM): 96.5% and 102% and 92.8%
- viability, T/C (compound 1 µM): 86.3% and 92.2% and 88.4%
- viability, T/C (compound 3.16 µM): 84.8% (2×) and 74.1%
- viability, T/C (compound 10 µM): 59.5% and 60.3% and 57.7%

— PubChem BioAssay AID1918999 (Molecular Pharmacology Branch, DTP, NCI, 2023)
